# Entries after “also recorded” stand apart in the source; their conditions may differ.
# Experiments:
# [1] = test system: mouse ventricular myocytes (wild-type); test: Cell-in-Gel confocal Ca^2+ spark imaging during myocyte contraction under afterload (wild-type); type: cell-based; conditions: wild-type myocytes contracting in Gel7.5%, paced 0.5 Hz, L-NAME 10 mM, L-NPA 5 μM, L-Nio 10 μM, Gp91ds 1 μM, blebbistatin 10 μM
# Protocol: Cell isolation. Wild-type and transgenic mice, 8 weeks old male, were purchased from Jackson Laboratories (USA): C57BL/6J (wild-type), B6.129S4-Nos1tm1Plh/J (NOS1−/−), B6.129P2-Nos3tm1Unca/J (NOS3−/−). Transgenic mouse with R92Q mutation in cardiac troponin T was created in Tardiff s lab (22) and bred in Chen-Izu's lab. A standard enzymatic technique (40) was used to isolate the ventricular myocytes using Worthington collagenase type II and Sigma protease type XIV. All experiments were conducted at 21-22° C.
# Cell-in-Gel system. Elastic gel matrix was made of a poly vinyl alcohol (PVA) hydrogel system comprised of underivatized PVA (98 KD) and a tetravalent boronate-PEG crosslinker (12). Freshly isolated myocytes were first suspended in 7% PVA solution; then 7.5% crosslinker solution was added in equal volume (Gel7.5%). Upon mixing, the boronate group crosslinks PVA hydrogel, embedding the cell in the 3D gel matrix. The boronate group also crosslinks the cis-diols of the cell-surface glycans to PVA, thereby tethering the cell surface to the gel. We used Gel7.5% for all the experiments in this study except one group in FIG. 11G using Gel5%.
# Confocal imaging of Ca^2+ signals. Myocytes were loaded with Ca^2+ indicator, Fluo-4, and then embedded in the gel. Confocal imaging was performed using standard method (41).
# For confocal imaging of the Ca^2+ signals, freshly isolated myocytes were continuously perfused in Tyrode solution containing (in mM): 150 NaCl, 5.4 KCl, 1.2MgCl2, 1 CaCl2, at pH 7.4, loaded with Ca^2+ indicator Fluo-4, and then embedded in the PVA gel. The cell was paced at 0.5 Hz frequency by electrical field stimulation using short (4 ms) depolarization pulses with bipolar switching (switch positive and negative polarity in consecutive stimulus pulses). The platinum electrodes were used in conjunction with continues perfusion of fresh Tyrode solution to maintain constant bath condition (pH, glucose, ionic composition, temperature etc.).
# Confocal images were obtained using an Olympus FluoView 1000 Confocal Microscope (inverted configuration) with a water immersion fluorescence objective UPlanSApo 60X, NA1.2, corrected for the thickness of the No. 1 glass coverslip that is used at the bottom of the perfusion chamber. Fluo-4 was excited with 488 nm laser beam (laser power set to 5%), and the emitted fluorescence light was passed through a bandpass filter BA505-605 and collected with a PMT. The PMT voltage, gain, and offset were set to avoid any saturation and to obtain high fidelity images. The line-scan images were obtained using the highest scan speed of 2 μs/pixel.
# Ca^2+ sparks were detected automatically using a homemade program based on our spark identification algorithm and adapted for x-t linescans. As in our 2-D program, sparks are identified in two stages. In the first stage, putative sparks are detected based on Cheng et al.'s description and bright but spatially small events were eliminated using the ‘live-or-die’ algorithm described in our previous publication. In the second stage, the putative sparks were classified as sparks or noise based on the statistical sieve as described previously in our publication. This analysis software provides automated and objective (agnostic via statistical sieving) detection and classification of the Ca^2+ signaling events. […]
# [2] = test system: mouse ventricular myocytes; test: Systolic Ca^2+ transient and myocyte contraction in-Gel (Fluo-4 confocal / Fura-2 ratio, sarcomere detection); type: cell-based; conditions: for systolic Ca^2+ transient (Fluo-4 confocal): compared to load-free contraction, blebbistatin 10 μM in gel; for peak systolic Ca^2+ transient (Fura-2 ratio), inhibitor effect: L-NPA 5 μM
# Source text: Mechanical load effects on the myocyte contraction and systolic Ca^2+ transient. To establish that the diastolic spontaneous Ca^2+ sparks are indeed caused by the mechanical load, we examined the Ca^2+ spark rate in the myocytes contracting under different mechanical loads as shown in FIG. 11G. We also examined the systolic Ca^2+ transient and the myocyte contraction under these conditions of varying loads.
# Whole cell Ca^2+ transient measurement using Fura-2 ratiometric method. In order to more precisely measure the whole cell Ca^2+ concentration, we used Fura-2 ratiometric method (40) rather than Fluo-4 single wavelength measurement. Fura-2 loading was done by incubating the cells with 2.5 μM Fura-2/AM and 0.75 μM Pluronic-127 (in 20% DMSO) at room temperature for 30 minutes. After washing out Fura-2/AM, the cells were incubated for an additional 45 minutes, and then used for experiment within 2 hours. An IonOptix system (IonOptix Inc., USA) with a Hyperswitch and mounted on the Olympus X71 inverted microscope with a water immersion fluorescence objective UPlanSPao 40×, 1.15 NA, corrected for the thickness of the No. 1 glass coverslip. The excitation light was generated using a high intensity ARC lamp (Cairn). The Hyperswitch (galvanometer based switching between […] and 380 nm at 500 Hz frequency, using a 340/370d/380 filter cube) was used to deliver dual excitation beams at 340 nm and 380 nm, switching between the two wavelengths. Fura-2 fluorescence emission light was passed through a bandpass filter D510/40m, and then collected in a photomultiplier tube (PMT). The gain of the PMT was set to avoid any saturation and to obtain high fidelity photon count.
# The Fura-2 fluorescence emission (F) from the excitation at 340 nm and 380 nm were recorded from the cell. The background fluorescence (BG) at 340 nm and 380 nm wavelengths were obtained in the solution and in the gel without cell. The BG signals were found slightly higher in the gel than in solution, but both were substantially lower than the Fura-2 fluorescence emissions from the cell. The Fura-2 fluorescence ratio, RFura, was calculated after background subtraction.
# For measuring the systolic Ca^2+ transient, the cell was first paced to reach steady-state (>2 minutes), and then the Fura-2 fluorescence was recorded for at least 10 beats during steady-state. For SR content measurement, after the cell reaching steady-state the field stimulation was stopped to keep the cell at resting state for 15 seconds; then caffeine at high concentration (20 mM) was applied to rapidly deplete the SR load (FIG. 14A,B). The rapidity of the SR Ca^2+ release was accessed by the rising velocity of the caffeine-induced Ca^2+ transient, and the peak Ca^2+ value was used as an index to measure the SR load. […] Since RyR sensitivity to intra-SR [Ca^2+] is steep, we also acknowledge that small changes in SR Ca^2+ that we could not detect could have functional impact.
# Myocyte contraction measurement. Contraction measurement using Fluo-4 confocal image was determined from the confocal x-t linescan by the difference in the positions of the left and right boundaries demarcated by the bright fluo-4 signal and the dimmer signal from the PVA gel or the bathing solution. Myocyte length was calculated by converting the fluorescence signal along each x into a binary vector. Fluorescence values above background plus a threshold were considered 1, otherwise 0. The numbers of “1” pixels was then multiplied by a scaling factor (determined by using a Ronchi ruling with 2.5 spacing) to get the cell shortening in microns. The threshold was set to half of the maximum calcium fluorescence.
# Contraction measurement using IonOptix system (IonOptix Co., USA) with sarcomere detection was done by using a high speed camera (Myocam-S, 240 up to 1000 frame/s) the record the sarcomere movement during contraction. […]
# CaMKII [3] = test: In vitro CaMKII activity measurement with Camui FRET sensor in HEK cell lysates; type: biochemical; conditions: Camui lacking phosphorylation (T286) or oxidation (CM280/281) sites
# Protocol: (§1) In Vitro CaMKII activity measurements with Camui sensor. Design and synthesis of the wild-type, phosphorylation resistant, and oxidation resistant Camui constructs were previously described. HEK293 cells were cultured in Eagle's medium plus 5% fetal bovine serum and penicillin/streptomycin for 24 hour and then transfected with plasmids encoding Camui (or a mutant isoform) using a mammalian transfection kit (Stratagene). After an additional 24 hour, Camui expression was checked by fluorescence microscopy. HEK cells expressing Camui were lysed in Ca^2+-free buffer containing 50 mM Tris-HCl buffer (pH 7.5), 5 mM MgCl2, and protease inhibitors. Fluorescence measurements were performed using a MS SpectraMax plate reading spectrophotometer (Molecular Devices) with excitation and emission slits set to 4 nm, excitation wavelength set to 440 nm, emission wavelengths set to 477 nm (FCFP) and 527 nm (FYFP), respectively. The cytosolic fraction of the transfected HEK cells […] Camui fluorescence was measured in the presence of 10 μM CaM and 200 μM Ca^2+. EGTA 1 mM was used to chelate Ca^2+ and autonomous CaMKII activity was measured in the presence of 1 mM EGTA and either 50 μM or 500 μM SNAP.
# (§2) CaMKII activity was known to be increased by auto-phosphorylation and by oxidation. Here we measure the effect of nitric oxide (NO) on CaMKII activity using the FRET-based biosensor Camui which detects conformational changes in CaMKII during activation. To determine whether NO can activate CaMKII, we expressed the CaMKII activity sensor Camui in HEK cells and measured autonomous activation induced by the NO donor SNAP. Camui comprises of full length CaMKII with a CFP/YFP pair on either end of the kinase, which produce substantial FRET in the closed (autoinhibited) state. If autoinhibition is disrupted, either directly by Ca^2+/CaM binding or autonomously by post-translational modification of the kinase, FRET is reduced, resulting in an increase in FCFP/FYFP. […] CaMKII is known to be autonomously activated by T286 phosphorylation and by CM280/281 oxidation. To test whether one or both of these mechanisms were responsible for SNAP-induced CaMKII activation, we repeated the HEK cell experiment using mutant versions of Camui lacking either the phosphorylation (T286) or oxidation (CM280/281) target sites. In both cases, SNAP dependent activation of CaMKII was preserved.
# CaMKII [4] = biological target: T1, CaMKII (Rattus norvegicus, UniProt P11275); test: as above; type: biochemical
# T1 construct: Camui comprises of full length CaMKII with a CFP/YFP pair on either end of the kinase; expressed in transfected cells; host or cells: HEK293 (lysate, cytosolic fraction)
# T1 sequence (P11275 whole entry): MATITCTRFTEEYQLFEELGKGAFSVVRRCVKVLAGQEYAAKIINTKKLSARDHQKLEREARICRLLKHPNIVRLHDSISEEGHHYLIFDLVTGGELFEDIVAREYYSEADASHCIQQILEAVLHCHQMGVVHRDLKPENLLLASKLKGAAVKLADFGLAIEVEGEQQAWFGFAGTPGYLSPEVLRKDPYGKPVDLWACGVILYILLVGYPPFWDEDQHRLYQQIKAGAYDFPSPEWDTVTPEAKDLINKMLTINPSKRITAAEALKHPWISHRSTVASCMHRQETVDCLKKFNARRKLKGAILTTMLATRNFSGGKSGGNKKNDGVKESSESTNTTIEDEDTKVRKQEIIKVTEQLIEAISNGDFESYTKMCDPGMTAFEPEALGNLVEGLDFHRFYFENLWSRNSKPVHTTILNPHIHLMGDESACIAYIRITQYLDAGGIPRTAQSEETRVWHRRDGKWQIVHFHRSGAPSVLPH
# Protocol: as §1, §2
# [5] = myocytes contracting in-Gel, L-Nio 10 μM
compound,measurement,setting,value
Cc1ccc2c(c1)C(=O)C1(O)CCN(c3ccccc3)C1=N2 (stereo not drawn) [blebbistatin],"afterload-induced diastolic spontaneous Ca^2+ sparks, drug effect",[1],restored the Ca^2+ transient and spark rate to the load-free condition
same,"afterload-induced diastolic spontaneous Ca^2+ sparks, drug effect",[1]; listed as Blebbistatin,normalization of Ca^2+ spark rate
same,systolic Ca^2+ transient (Fluo-4 confocal),[2],restored the Ca^2+ transient and spark rate to the load-free condition
same,systolic Ca^2+ transient (Fluo-4 confocal),[2]; listed as Blebbistatin,restored the Ca^2+ transient to the load-free condition
same,myocyte contraction amplitude (fractional shortening),"[2]; in gel versus load-free, blebbistatin 10 μM",decoupled cell contraction from Ca^2+ signaling
"CCCN=C(N)NCCC[C@H](N)C(=O)O.Cl [L-NPA, Nw-Propyl-L-arginine hydrochloride]","afterload-induced diastolic spontaneous Ca^2+ sparks, drug effect",[1],effectively suppressed Ca^2+ sparks
same,"peak systolic Ca^2+ transient (Fura-2 ratio), inhibitor effect",[2]; [5],reduced the Ca^2+ transient
"CC(N)=NCCC[C@H](N)C(=O)O.Cl.Cl [L-Nio, L-Nio-dihydrochloride]","afterload-induced diastolic spontaneous Ca^2+ sparks, drug effect",[1],failed to suppress Ca^2+ sparks
same,"peak systolic Ca^2+ transient (Fura-2 ratio), inhibitor effect",[2]; [5],reduced the Ca^2+ transient
same,Tau of the Ca^2+ transient decline,[2]; [5],slowed the speed of Ca^2+ transient decline
COC(=O)[C@@H](N)CCCNC(=N)N[N+](=O)[O-] [L-NAME],"afterload-induced diastolic spontaneous Ca^2+ sparks, drug effect",[1],effectively suppressed Ca^2+ sparks
CC(=O)N[C@@H](C(=O)O)C(C)(C)SN=O (racemic) [SNAP],SNAP dependent CaMKII activation in mutant Camui,CaMKII [3],preserved; also recorded: not secondary to either phosphorylation (T286A) or oxidation (CM/VV)
same,autonomous CaMKII activation (FCFP/FYFP),"CaMKII [4]; 50 μM SNAP with 1 mM EGTA, compared to EGTA only",no effect
same,autonomous CaMKII activation (FCFP/FYFP),CaMKII [4]; 500 μM SNAP with 1 mM EGTA,significant increase in CaMKII activation; also recorded: Autonomous CaMKII activation was seen
same,CaMKII activation relative to Ca^2+/CaM dependent activity,CaMKII [4]; 500 μM SNAP with EGTA,about 50 % of Ca^2+/CaM dependent activity

# From patent publication US10539552B2, “Compositions and methods for measuring cellular mechanical stress” (The Regents of the University of California, priority 2014, dated 2020)
